# Reference: US20110190199A1, “Combination Therapy for Tuberculosis” (priority 2008, published 2011)
# Where “and” joins values, the source holds several entries; their conditions need not be identical. Equal values may be shown once. Read-outs that look alike come from different tables or passages of the source.
# Tests used:
# [1] = 600-625 mg by mouth twice daily; cited from earlier work
# [2] = tested on: Mycobacterium tuberculosis; details: cited from earlier work
# [3] = tested on: Mycobacterium tuberculosis H37Rv; assay: MIC by agar dilution on Middlebrook 7H11 agar; type: cell-based; details: 672 h, 7H11 agar + 10% OADC, 28 days at 37°C, lowest concentration to inhibit at least 99% of bacterial growth
# [4] = tested on: Mycobacterium tuberculosis H37Rv; type: in vivo, mice
# [5] = Single-dose and steady-state serum pharmacokinetics in the murine model; type: in vivo, mice
# Procedure: To determine the single-dose and steady-state pharmacokinetic profiles of the compound of formula (I) and LZD in the murine model, a sub-study was nested in the above dose-ranging study using mice treated with the compound of formula (I) at 100 mg/kg once-daily or LZD at 130 mg/kg once- or twice-daily. Three mice per group were sacrificed at 0.5, 1, 2, 4, 8 and 24 hours after the first dose of treatment (D1) and at the aforementioned time points with the addition of a 9 hour time point (i.e., 1 hour after the second daily dose) on Day 24 (D24) of treatment. Mice were anesthetized with chloroform and exsanguinated by cardiac puncture. Whole blood was collected on ice and then centrifuged to obtain serum. Acetonitrile was added to the samples before storage in gasketed screwcap tubes at −20° C. D24 samples were collected and processed in the same manner and stored at −20° C. before being sent together with D1 samples to Pfizer (Groton, Conn.) for determination of drug concentrations. The supernatant was injected (10 μL injection volume) onto the LC (Shimadzu SCL-10A, Kyoto, Japan)-MS/MS (Sciex API 3000, Applied Biosystems Group, Foster City, Calif.) using a Hypersil C18 column (5 μm, 50×2.1 mm, Thermo Electron Corp, Waltham, Mass.) and a step gradient consisting of a mobile phase of A: water with 0.05% 5 mM ammonium formate and B: acetonitrile/water/5 mM ammonium formate (80:20:0.05%). The ionization was electrospray positive ion mode. Bioanalytical data were captured using Analyst (Version 1.4.1, Applied Biosystems Group, Foster City, Calif.). Pharmacokinetic calculations were based on mean serum concentrations and performed using the non-compartmental approach (linear trapezoidal rule for AUC calculation with the aid of Watson 7.2 Bioanalytical LIMS [Thermo Electron Corp, Waltham, Mass.)). […] Concentrations of 0 were used for kinetic calculations for all results below the lower limit of quantitation (5 ng/mL).
# [6] = tested on: M. tuberculosis H37Rv; assay: Example 9: compound of formula I added to first and second line anti-tuberculosis drugs (survival, lung CFU after 4 weeks); type: in vivo, mice; details: D0 8.36 ± 0.10
# [7] = tested on: Mycobacterium tuberculosis H37Rv; assay: Example 8B: eight week dose ranging study (second phase after 4 weeks RHZU25); type: in vivo, mice; parameters: Lung CFU / CFU-U only: unit not given here; details: for effect of U monotherapy against persisting tubercle bacilli / log reduction with U monotherapy against persisting tubercle bacilli: 4 weeks after initial 4 weeks of RHZU25; for CFU-U only: lung
# Procedure: Eighty of the mice from Group 4 (in Example 8A) that had been receiving 25 mg/kg of the compound of formula I (U) along with rifampin(R), isoniazid(H), and pyrazinamide(Z) were evaluated in the second phase of the study. They were assigned to one of the groups described below in Table 6 and the study was continued for an additional 4 weeks (i.e. 8 week results).
# As described above, 5 animals served as the control and no further drugs were given. Five were given the combination of rifampin(R) and isoniazid (H), five given isoniazid (H) or rifampin(R) alone. […] Six of these groups were also dosed with rifampin (R). The rifampin and isoniazid was dosed in the same manner and in the same amount as in Example 8A.
# At the conclusion of the eight (8) week experiment, all of the animals were sacrificed and CFU lung counts were obtained.
# [8] = tested on: Mycobacterium tuberculosis H37Rv; assay: Example 6: in vivo activity of the combination (lung CFU after 4 and 8 weeks); parameters: species or system mice
# [9] = tested on: Mycobacterium tuberculosis H37Rv; assay: Example 8C: additional dose ranging study (4 and 8 weeks); type: in vivo, mice; details: lung
# Procedure: The protocol described above in Example 8A and 8B was carried out on an alternative occasion. The only substantive changes were the number of animals per group and the initial incubation period.
# Testing continued for an additional 4 weeks with 60 of the mice from Test Group 2 immediately above. The mice either received U alone, at varying doses, or the combination of U and R. The following results were obtained.
# [10] = Mycobacterium tuberculosis, literature
# [11] = labelled regimen PLUS compound of formula (I) 100 mg/kg/day, INH 25, RIF 10, PZA 150, MXF 100 mg/kg, Day 0 7.37 ± 0.12
# [12] = regimen as labelled, INH 25, RIF 10, PZA 150, MXF 100, compound of formula (I) 100 mg/kg, Day 0 7.37 ± 0.12
smiles,measurement,setting,value
"CC(=O)NC[C@H]1CN(c2ccc(N3CCOCC3)c(F)c2)C(=O)O1 [LZD, linezolid]",steady state AUC observed in humans,[1],215 to 294 µg·h/mL
same,MIC50,[2]; [10],0.5 µg/mL
same,MIC90,[2]; [10],1 µg/mL
same,MIC range,[2]; [10],0.125 to 1 µg/mL
same,MIC,[3],0.25 µg/mL
same,log kill (reduction in mean lung CFU count compared to the baseline value),"[4]; mouse, in vivo",1.46 log10
same,mean spleen weight,"[4]; mouse, in vivo",200 ± 47 mg and 102 ± 5 mg and 190 ± 52 mg
same,Mean log10 CFU count (± SD) on Day 28,"[4]; mouse, in vivo, 25 mg/kg",7.55 ± 0.24 log10 CFU
same,Mean log10 CFU count (± SD) on Day 28,"[4]; mouse, in vivo, 50 mg/kg",7.33 ± 0.11 log10 CFU
same,Mean log10 CFU count (± SD) on Day 28,"[4]; mouse, in vivo, 100 mg/kg",6.75 ± 0.14 log10 CFU
same,Mean log10 CFU count (± SD) on Day 28,"[4]; mouse, in vivo, 260 mg/kg",6.03 ± 0.12 log10 CFU
same,Cmax higher than that obtained in humans,"[5]; 100 mg/kg dose in the mouse, based on linear kinetics",approximately 3 times
same,steady state AUC higher than anticipated steady state AUC in humans,[5]; mouse 130 mg/kg daily vs humans 600-625 mg twice daily,approximately 50%
same,AUC(0-t),"[5]; mouse, serum, po, 130 mg/kg, serum, Day 1, LZD 130 mg/kg daily oral, read-out: AUC0-24",164 µg·h/mL
same,Cmax,"[5]; mouse, serum, po, 130 mg/kg, serum, Day 1, LZD 130 mg/kg daily oral, read-out: Cmax",64.9 µg/mL
same,AUC(0-t),"[5]; mouse, serum, po, 130 mg/kg, serum, Day 24, LZD 130 mg/kg daily oral, read-out: AUC0-24 (steady state AUC)",379 µg·h/mL
same,Cmax,"[5]; mouse, serum, po, 130 mg/kg, serum, Day 24, LZD 130 mg/kg daily oral, read-out: Cmax",58.4 µg/mL
"CC(=O)NC[C@H]1CN(c2ccc(N3CCSCC3)c(F)c2)C(=O)O1 [compound of formula (I), (S)—N-[[3-[3-fluoro-4-(4-thiomorpholinyl)phenyl]-2-oxo-5-oxazolidinyl]methyl]acetamide]",MIC90 against M. tuberculosis,[2]; stated in the pharmacokinetics section (Barbachyn et al.),0.25 µg/mL
same,Mean lung log10 CFU count (±) S.D. after 4 weeks of treatment with: Regimen + U 25 mg/kg,[6]; labelled drug PLUS U 25 mg/kg,7.17 ± 0.23 log10 CFU
same,Mean lung log10 CFU count (±) S.D. after 4 weeks of treatment with: Regimen + U 100 mg/kg,"[6]; labelled drug PLUS U 100 mg/kg, lower limit of detection 3.40",5.40 ± 0.10 log10 CFU
same,effect of U monotherapy against persisting tubercle bacilli,[7]; 12.5 mg/kg,growth-inhibitory effect
same,effect of U monotherapy against persisting tubercle bacilli,[7]; 25 mg/kg,bacteriostatic effect
same,log reduction with U monotherapy against persisting tubercle bacilli,[7]; 50 mg/kg,> 0.5 log
same,log reduction with U monotherapy against persisting tubercle bacilli,[7]; 100 mg/kg,> 1 log
same,log reduction with U monotherapy against persisting tubercle bacilli,[7]; 160 mg/kg,~2 log
same,CFU-U only,[7]; 8 weeks: 4 weeks RHZU25 then 4 weeks U 12.5 mg/kg,4.99 ± 0.19
same,CFU-U only,[7]; 8 weeks: 4 weeks RHZU25 then 4 weeks U 25 mg/kg,4.26 ± 0.24
same,CFU-U only,[7]; 8 weeks: 4 weeks RHZU25 then 4 weeks U 50 mg/kg,3.56 ± 0.15
same,CFU-U only,[7]; 8 weeks: 4 weeks RHZU25 then 4 weeks U 50 mg/kg thrice weekly (3/7),4.21 ± 0.26
same,CFU-U only,[7]; 8 weeks: 4 weeks RHZU25 then 4 weeks U 100 mg/kg,2.88 ± 0.34
same,CFU-U only,[7]; 8 weeks: 4 weeks RHZU25 then 4 weeks U 160 mg/kg,2.42 ± 0.31
same,MIC,[3],0.25 µg/mL
same,in vivo potency relative to LZD,"[4]; 25 mg/kg as active as LZD 130 mg/kg, AUC about 3-fold lower at 100 mg/kg",12 times
same,log kill (reduction in mean lung CFU count compared to the baseline value),"[4]; 25 mg/kg, 28 days",0.78 log10
same,mean spleen weight,"[4]; 25 mg/kg, after 28 days of treatment, pre-treatment 105±11 mg, untreated 237±16 mg",113 ± 17 mg
same,log kill (reduction in mean lung CFU count compared to the baseline value),"[4]; 50 mg/kg, 28 days",2.21 log10
same,Mean log10 CFU count (± SD) on Day 28,"[4]; lung, 25 mg/kg once daily, 5 days per week by gavage, Day 0 7.49 ± 0.11",6.71 ± 0.28 log10 CFU
same,Mean log10 CFU count (± SD) on Day 28,"[4]; lung, 25 mg/kg twice daily, Day 0 7.49 ± 0.11",5.51 ± 0.14 log10 CFU
same,Mean log10 CFU count (± SD) on Day 28,"[4]; lung, 50 mg/kg once daily, Day 0 7.49 ± 0.11, 50 mg/kg",5.28
same,Mean log10 CFU count (± SD) on Day 28,"[4]; lung, 50 mg/kg once daily, Day 0 7.49 ± 0.11, listed as Compound of Formula (I), 50 mg/kg",5.28 ± 0.53 log10 CFU
same,Mean log10 CFU count (± SD) on Day 28,"[4]; lung, 50 mg/kg twice daily, Day 0 7.49 ± 0.11",4.89 ± 0.27 log10 CFU
same,Mean log10 CFU count (± SD) on Day 28,"[4]; lung, 100 mg/kg once daily, Day 0 7.49 ± 0.11",5.07 ± 0.14 log10 CFU
same,AUC0-24,"[5]; mouse, in vivo, po, 100 mg/kg",8.74 µg·h/mL
same,Cmax,"[5]; mouse, in vivo, po, 100 mg/kg",4.32 µg/mL
same,AUC(0-t),"[5]; mouse, in vivo, po, 100 mg/kg, AUC0-24",7.33 µg·h/mL
same,Cmax,"[5]; mouse, in vivo, po, 100 mg/kg, Cmax",6.07 µg/mL
same,"Lung log10 CFU counts (±SD) after treatment with the indicated regimen plus the compound of formula (I) 100 mg/kg/day, Day 28",[8]; [11],4.72 ± 0.17 log10 CFU
same,"Lung log10 CFU counts (±SD) after treatment with the indicated regimen plus the compound of formula (I) 100 mg/kg/day, Day 56",[8]; [11],2.70 ± 0.29 log10 CFU
same,reduction in lung CFU counts from baseline over the first 28 days,"[8]; monotherapy, compound of formula (I) 100, INH 25, RIF 10 mg/kg",2.65 log10
same,"Lung log10 CFU counts (±SD) after treatment with the indicated regimen, Day 28",[8]; [12],4.72 log10 CFU
same,"Lung log10 CFU counts (±SD) after treatment with the indicated regimen, Day 56",[8]; [12],2.70 log10 CFU
same,CFU Count 8 weeks,[9]; 4 weeks RHZU100 then 4 weeks with U 6.25 mg/kg (alone or with R),4.93 ± 0.32
same,CFU Count 8 weeks,[9]; 4 weeks RHZU100 then 4 weeks with U 12.5 mg/kg (alone or with R),5.30 ± 0.08
same,CFU Count 8 weeks,[9]; 4 weeks RHZU100 then 4 weeks with U 25 mg/kg (alone or with R),5.27 ± 0.20
same,CFU Count 8 weeks,[9]; 4 weeks RHZU100 then 4 weeks with U 50 mg/kg (alone or with R),4.59 ± 0.28
same,CFU Count 8 weeks,[9]; 4 weeks RHZU100 then 4 weeks with U 100 mg/kg (alone or with R),3.86 ± 0.53
same,CFU Count 8 weeks,[9]; 4 weeks RHZU100 then 4 weeks with U 160 mg/kg (alone or with R),2.90 ± 0.32
